Data on 21 compounds can be found in patent US7750184B2, “Vitamin D receptor modulators” (Eli Lilly and Company, priority 2003, dated 2010).

One data set has as its system rat osteocalcin promoter. The experiment in a line: OCN (osteocalcin) promoter assay. In kind it is cell-based. The following applies: RG-15 (ROS 17/2.8) cells, 48 hr treatment, luciferase reporter. How it is done:
3. The OCN (osteocalcin) Promoter Assay
The OCN Promoter Assay is an indicator and marker for osteoporosis. […] Preferred assay results are less than 50 nM.
(3) Materials and Method for the OCN Promoter Assay:
The activation of osteocalcin by VDR ligands was evaluated in a rat osteoblast-like cell line RG-15 (ROS 17/2.8) stably expressing rat osteocalcin promoter fused with luciferase reporter gene. […] Confluent RG-15 cells maintained in DMEM/F-12 medium (3:1) containing 5% FBS, 300 μg/ml G418 and at 37° C. under 5% CO2/95% air atmosphere were trypsinized (0.25% trypsin) and plated into white opaque 96-well cell culture plates (25000 cells/well). After 24 hr, cells (in DMEM/F-12 medium+2% FBS) were treated with various concentrations of compounds, dissolved in DMSO. The final DMSO concentration remained at 0.01% (v/v). After 48 hr treatment, the medium was removed, cells were lysed with 50 μl of lysis buffer (From Luciferase reporter assay system, Roche Diagnostics, Indianapolis, Ind.) and assayed for luciferase activity using the Luciferase Reporter Gene Assay kit from Boehringer Mannheim as per manufacturer's specifications.
On the technique in general: A reporter such as luciferase makes a cellular process visible.

A short description of data set [1]: Mouse hypercalcemia assay. To be noted: oral gavage for 6 days, serum ionized calcium 6 hours after last dosing.
Experimental: The Mouse Hypercalcemia Assay is a six day hypercalcemia test for toxicity and selectivity. Acceptable test results are levels greater than 300 μg/kg/day. Preferred assay results are levels greater than 1000 μg/day.
(4) Materials and Method for the Mouse Hypercalcemia Assay:
Weanling, virus—antibody-free, five to six weeks old female DBF mice (Harlan, Indianapolis, Ind.) are used for all the studies. Animals are allowed to acclimate to local vivarium conditions for 2 days. […] The animals then are divided into groups with 4-5 mice per group. Different doses of test compounds prepared in 10% Ethanol and 90% sesame oil are administered to mice orally via gavage for 6 days. 1α-25(OH)2D3 0.5 μg/kg/d was also given to one group of mice as the positive control. […] Raw data of group differences is assessed by analysis of variance (ANOVA) using Fisher's protected least significant difference (PLSD) where the significance level was P<0.05.
Another data set has as its target T1, VDR (Homo sapiens, UniProt P11473).
T1 construct: the receptor expression vector pGal4-VDR-LBD (10 ng); expressed in transfected cells; host or cells: Caco-2 cells
T1 sequence (P11473 127-423 limits assumed): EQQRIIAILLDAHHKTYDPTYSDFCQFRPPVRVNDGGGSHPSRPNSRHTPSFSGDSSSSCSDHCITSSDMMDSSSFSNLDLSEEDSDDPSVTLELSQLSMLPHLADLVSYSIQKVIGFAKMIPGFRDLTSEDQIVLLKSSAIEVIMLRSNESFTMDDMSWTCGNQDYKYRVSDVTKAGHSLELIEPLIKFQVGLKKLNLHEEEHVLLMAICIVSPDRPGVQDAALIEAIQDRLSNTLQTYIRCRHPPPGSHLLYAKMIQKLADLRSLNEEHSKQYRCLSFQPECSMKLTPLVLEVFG
Kind of data set: Caco-2 cell co-transfection assay (VDR CTF). To be noted: Caco-2 cells, pGal4-VDR-LBD co-transfection, luciferase reporter. In kind it is cell-based. How it is done: 2. The Caco-2 Cell Co-Transfection Assay:
The Caco-2 cell assay is an indicator for the undesirable condition of hypercalcemia. This co-transfection assay is a surrogate assay for in vivo calcemic activity of VDR ligands. […] Preferred assay results are greater than 1000 nM.
(2) Materials and Method for The Caco-2 Cell Assay:
Caco-2 cells, grown in phenol red free, DMEM (Invitrogen, Carlsbad, Calif.) containing 10% charcoal-stripped FCS (Hyclone, Logan, Utah), were transfected with Fugene 6 reagent (Roche Diagnostics, Indianapolis, Ind.). Cells (5000/well) were plated 18 h before transfection in a 96 well plate. The Cells were transfected with Gal4-responsive reporter pFRLuc (150 ng, Stratagene, La Jolla Calif.) and the receptor expression vector pGal4-VDR-LBD (10 ng), along with Fugene 6 reagent (0.2 μl/well). The DNA-Fugene complex was formed by incubating the mixture for 30 min at room temperature. The cells were transfected in triplicate for 5 h, and treated with various concentrations of VDR ligands (form 0.01 nM to 10,000 nM concentration range) 18 h post-transfection. The luciferase activity was quantified using Steady-Glo reagent kit (Promega, Madison, Wis.) as per manufacturer's specifications.

The term EC50 denotes the concentration that produces a half-maximal response.

As for `CCC(CC)(c1ccc(OCC(O)C(C)(C)C)c(C)c1)c1ccc(N(C)S(C)(=O)=O)c(C)c1` (centres unmarked) [Ex. 19, N-(4-{1-Ethyl-1-[4-(2-hydroxy-3,3-dimethyl-butoxy)-3-methyl-phenyl]-propyl}-2-methyl-phenyl)-N-methyl-methanesulfonamide], in the data set with rat osteocalcin promoter (Rattus norvegicus, 48 h), the EC50 turned out to be 16.8 nM.

Regarding `CCC(CC)(c1ccc(NS(=O)(=O)C(F)(F)F)c(C)c1)c1ccc(OCC(=O)C(C)(C)C)c(C)c1` [Ex. 27, N-(4-{1-[4-(3,3-Dimethyl-2-oxo-butoxy)-3-methyl-phenyl]-1-ethyl-propyl}-2-methyl-phenyl)-trifluoromethanesulfonamide], the EC50 in the data set on rat osteocalcin promoter (Rattus norvegicus, 48 h) was found to be 10.6 nM. For the same compound, the “Mouse Hypercal” value in data set [1] is 500 µg/kg/day.

On to `CCC(CC)(c1ccc(NS(C)(=O)=O)c(C)c1)c1ccc(OCC(O)C(C)(C)C)c(C)c1` (centres unmarked) [Ex. 12, 3′-[4-(2-Hydroxy-3,3-dimethylbutoxy)-3-methylphenyl]-3′-[4-(methanesulfonylamino)-3-methylphenyl]pentane], for which the EC50 came to 112 nM at VDR and 2.33 nM in the data set on rat osteocalcin promoter (Rattus norvegicus, 48 h).

As for `CCC(CC)(c1ccc(OCC(=O)C(C)(C)C)c(C)c1)c1ccc(N(CCSC)S(C)(=O)=O)c(C)c1` [Ex. 30, N-(4-{1-[4-(3,3-Dimethyl-2-oxo-butoxy)-3-methyl-phenyl]-1-ethyl-propyl}-2-methyl-phenyl)-N-(2-methylsulfanyl-ethyl)-methanesulfonamide], the EC50 in the data set with rat osteocalcin promoter (Rattus norvegicus, 48 h) came out at 104 nM.

As for `CCSCCS(=O)(=O)Nc1ccc(C(CC)(CC)c2ccc(OCC(=O)C(C)(C)C)c(C)c2)cc1C` [Ex. 31, N-(4-{1-[4-(3,3-Dimethyl-2-oxo-butoxy)-3-methyl-phenyl]-1-ethyl-propyl}-2-methyl-phenyl)-2-ethylsulfanyl-ethanesulfonamide], the EC50 in the data set with rat osteocalcin promoter (Rattus norvegicus, 48 h) came to 44 nM.

For `CCC(CC)(c1ccc(OS(C)(=O)=O)cc1)c1ccc(OCC(=O)C(C)(C)C)c(C)c1` [Ex. 38, 3′-[4-(2-oxo-3,3-dimethylbutoxy)-3-methylphenyl]-3′-[4-methylsulfonyloxy-phenyl]pentane], the EC50 in the data set on rat osteocalcin promoter (Rattus norvegicus, 48 h) turned out to be 2.08 nM. Moreover, the “Mouse Hypercal” value in data set [1] was below 300 µg/kg/day.

With `CCC(CC)(c1ccc(OCC(O)CO)c(C)c1)c1ccc(OCC(O)C(C)(C)C)c(C)c1` (centres unmarked) [BB, 3-(4-{1-Ethyl-1-[4-(2-hydroxy-3,3-dimethyl-butoxy)-3-methyl-phenyl]-propyl}-2-methyl-phenoxy)-propane-1,2-diol, reference compound], the EC50 in the data set on rat osteocalcin promoter (Rattus norvegicus, 48 h) was determined as 11 nM. The “Mouse Hypercal” value in data set [1] was 20 µg/kg/day.

`CCC(CC)(c1ccc(OCC(O)C(C)(C)C)c(C)c1)c1ccc(OS(=O)(=O)CC)c(C)c1` (centres unmarked) [Ex. 9, 3′-[4-(2-hydroxy-3,3-dimethylbutoxy)-3-methylphenyl]-3′-[4-(ethanesulfonyloxy)-3-methylphenyl]pentane]: the EC50 at VDR was 13 nM.

Turning to `CCC(CC)(c1ccc(OCC(C)(O)C(C)(C)C)c(C)c1)c1ccc(OS(=O)(=O)CC)c(C)c1` (centres unmarked) [Ex. 10, 3′-[4-(2-hydroxy-2-methyl-3,3-dimethylbutoxy)-3-methylphenyl]-3′-[4-(ethanesulfonyloxy)-3-methylphenyl]pentane], the EC50 is 15 nM at VDR and 0.3 nM in the data set with rat osteocalcin promoter (Rattus norvegicus, 48 h).

Regarding `CCC(CC)(c1ccc(OCC(=O)C(C)(C)C)cc1)c1cc(C)c(OS(C)(=O)=O)c(C)c1` [Ex. 41, 3′-[4-(2-oxo-3,3-dimethylbutoxy)-phenyl]-3′-[3,5-dimethyl-4-methylsulfonyloxy-phenyl]pentane], the EC50 is 614 nM on VDR and 111 nM in the data set with rat osteocalcin promoter (Rattus norvegicus, 48 h).

Turning to `CCC(CC)(c1ccc(OCC(=O)C(C)(C)C)c(C)c1)c1ccc(OS(C)(=O)=O)c(C)c1` [Ex. 4, 3′-[4-(2-oxo-3,3-dimethylbutoxy)-3-methylphenyl]-3′-[4-(methanesulfonyloxy)-3-methylphenyl]pentane], the EC50 at VDR turned out to be 164 nM; with rat osteocalcin promoter (Rattus norvegicus, 48 h), 0.91 nM.

On to `CCC(CC)(c1ccc(OCC(O)C(C)(C)C)c(C)c1)c1ccc(N(C)S(C)(=O)=O)c(C)c1` (single isomer, unassigned) [Ex. 20, N-(4-{1-ethyl-1-[4-(2-hydroxy-3,3-dimethyl-butoxy)-3-methyl-phenyl]-propyl}-2-methyl-phenyl)-N-methyl-methanesulfonamide], for which, in the data set with rat osteocalcin promoter, the EC50 is 28.1 nM. For the same compound, the “Mouse Hypercal” value in data set [1] is 500 µg/kg/day.

Consider `CCC(CC)(c1ccc(NS(=O)(=O)CCSC(C)C)c(C)c1)c1ccc(OCC(=O)C(C)(C)C)c(C)c1` [Ex. 33, N-(4-{1-[4-(3,3-Dimethyl-2-oxo-butoxy)-3-methyl-phenyl]-1-ethyl-propyl}-2-methyl-phenyl)-2-isopropylsulfanyl-ethanesulfonamide], for which the EC50 with rat osteocalcin promoter (Rattus norvegicus, 48 h) was 49.4 nM.

`CCC(CC)(c1ccc(NS(=O)(=O)CCS(=O)(=O)C(C)C)c(C)c1)c1ccc(OCC(=O)C(C)(C)C)c(C)c1` [Ex. 34, N-(4-{1-[4-(3,3-Dimethyl-2-oxo-butoxy)-3-methyl-phenyl]-1-ethyl-propyl}-2-methyl-phenyl)-2-(propane-2-sulfonyl)-ethanesulfonamide]: the EC50 in the data set on rat osteocalcin promoter (Rattus norvegicus, 48 h) is 374 nM.

For `CCC(CC)(c1ccc(NS(=O)(=O)CCS(=O)(=O)CC)c(C)c1)c1ccc(OCC(=O)C(C)(C)C)c(C)c1` [Ex. 32, N-(4-{1-[4-(3,3-Dimethyl-2-oxo-butoxy)-3-methyl-phenyl]-1-ethyl-propyl}-2-methyl-phenyl)-2-ethanesulfonyl-ethanesulfonamide], the EC50 in the data set with rat osteocalcin promoter (Rattus norvegicus, 48 h) was found to be 240 nM.

Consider `CCC(CC)(c1ccc(OCC(=O)C(C)(C)C)c(C)c1)c1ccc(OS(=O)(=O)CC)c(C)c1` [Ex. 8, 3′-[4-(2-oxo-3,3-dimethylbutoxy)-3-methylphenyl]-3′-[4-(ethanesulfonyloxy)-3-methylphenyl]pentane], for which the concentration giving a half-maximal response (EC50) on VDR amounted to 34.8 nM; in the data set on rat osteocalcin promoter (Rattus norvegicus, 48 h), 3.48 nM.

As to `CCC(CC)(c1ccc(OCC(=O)C(C)(C)C)c(C)c1)c1ccc(N(C)S(=O)(=O)CC)c(C)c1` [Ex. 24, N-(4-{1-[4-(3,3-Dimethyl-2-oxo-butoxy)-3-methyl-phenyl]-1-ethyl-propyl}-2-methyl-phenyl)-N-methyl-ethanesulfonamide], the EC50 with rat osteocalcin promoter (Rattus norvegicus, 48 h) was found to be 44.6 nM. The “Mouse Hypercal” value in data set [1] is below 1000 µg/kg/day.

Turning to `CCC(CC)(c1ccc(NS(=O)(=O)CC(F)(F)F)c(C)c1)c1ccc(OCC(=O)C(C)(C)C)c(C)c1` [Ex. 29, N-(4-{1-[4-(3,3-Dimethyl-2-oxo-butoxy)-3-methyl-phenyl]-1-ethyl-propyl}-2-methyl-phenyl)-2,2,2-trifluoro-ethanesulfonamide], the EC50 in the data set on rat osteocalcin promoter (Rattus norvegicus, 48 h) amounted to 4.58 nM. The “Mouse Hypercal” value in data set [1] is 100 µg/kg/day.

In the case of `CCC(CC)(c1ccc(OCC(=O)C(C)(C)C)c(C)c1)c1ccc(N(S(=O)(=O)CC(F)(F)F)S(=O)(=O)CC(F)(F)F)c(C)c1` [Ex. 28, N-(4-{1-[4-(3,3-Dimethyl-2-oxo-butoxy)-3-methyl-phenyl]-1-ethyl-propyl}-2-methyl-phenyl)-N,N-bis-2,2,2-trifluoro-ethanesulfonamide], in the data set with rat osteocalcin promoter (Rattus norvegicus, 48 h), the EC50 was 17.9 nM. For the same compound, in data set [1], the “Mouse Hypercal” value was 1000 µg/kg/day.

For `CCC(CC)(c1ccc(OCC(O)C(C)(C)C)cc1)c1ccc(OS(C)(=O)=O)c(C)c1` (centres unmarked) [Ex. 37, 3′-[4-(2-hydroxy-3,3-dimethylbutoxy)-phenyl]-3′-[4-methylsulfonyloxy-3-methylphenyl]pentane], the EC50 at VDR was 308 nM; in the data set on rat osteocalcin promoter (Rattus norvegicus, 48 h) it was 67.2 nM.

For the compound `CCC(CC)(c1ccc(OCC(=O)C(C)(C)C)c(C)c1)c1ccc(N(S(=O)(=O)CC)S(=O)(=O)CC)c(C)c1` [Ex. 22, N-(4-{1-[4-(3,3-dimethyl-2-oxo-butoxy)-3-methyl-phenyl]-1-ethyl-propyl}-2-methyl-phenyl)-N,N-bis-ethanesulfonamide], the EC50 in the data set on rat osteocalcin promoter (Rattus norvegicus, 48 h) is 29.8 nM. In addition, the “Mouse Hypercal” value in data set [1] is 500 µg/kg/day.
